Read-outs that look alike come from different tables or passages of the source.
Columns and labels:
in vitro = details: mouse, microsomes
CYP enzyme subtype 2D6 = CYP enzyme subtype 2D6 (Homo sapiens, UniProt P10635); assay: Inhibition assay on hepatic CYP450 enzyme; type: in vitro ADME; details: CYP 2D6; read-out: Half inhibitory concentration (IC50)
Mu50 [1] = assay: IC50 of inhibition of staphyloxanthin synthesis in drug-resistant strain; type: cell-based; details: Staphylococcus aureus
Method: (§1) Selection of compound concentrations: based on the preliminary screening results, the ability of each compound to inhibit staphyloxanthin synthesis was determined. […] According to the assay results, 10 different concentration gradients were designed for each compound, such that the ability to inhibit staphyloxanthin synthesis comprised substantially from 0% to 100%.
(§2) Culture of the strains: single colonies of strain Newman and crtN mutant strain were picked from TSA plates, added into test tubes containing 4 mL of sterile TSB medium, and cultured at 37° C. and 250 rpm for 12 h for later use.
(§3) The relative level of staphyloxanthin synthesis at each concentration of the compound of the invention=A450 (sample)/A450 (negative control)*100%. With the molar concentration of the compound as the abscissa and the relative level of staphyloxanthin synthesis as the ordinate, a curve fitting of inhibitor concentration-inhibition rate (log(inhibitor) vs response) was performed in Graphpad prism 5.0 software, and the IC50 of the compound for inhibiting staphyloxanthin synthesis was calculated by software based on the fitting results.
(§4) In addition to replacement of S. aureus strain Newman with USA 400 MW 2, USA 300 LAC and Mu 50, the rest of the method is the same as in Examples 58-59.
(§5) Compound IA-25 was used as a representative compound. In addition to replacement of S aureus strain Newman with other MRSA strains as described in Table 3, the rest of the method is the same as in Examples 61-62.

USA300 LAC = assay: as above; type: cell-based; details: Staphylococcus aureus
Method: as §1, §2, §3, §4, §5

USA400 MW2 = assay: as above; type: cell-based; details: Staphylococcus aureus
Method: as §1, §2, §3, §4, §5

S. aureus = assay: Hydrogen peroxide killing assay; type: cell-based, Staphylococcus aureus; details: four strains, 1.5% hydrogen peroxide, 1 h
Source text: Compound IA-25 was used as a representative compound. The main object of the invention was to impair the ability of bacteria to resist immunological killing in vivo by inhibiting staphyloxanthins synthesis.
The calculated survival rate of bacteria after hydrogen peroxide killing=(count of bacteria grown in sample after hydrogen peroxide killing×dilution factor)/(count of bacteria grown in control group×dilution factor)×100%.

CYP enzyme subtype 1A2 = CYP enzyme subtype 1A2 (Homo sapiens, UniProt P05177); assay: Inhibition assay on hepatic CYP450 enzyme; type: in vitro ADME; details: CYP 1A2; read-out: Half inhibitory concentration (IC50)
NRS70 (JPN) = assay: IC50 of inhibition of staphyloxanthin synthesis in MRSA strain; type: cell-based; details: Staphylococcus aureus, NRS70, read-out: Inhibitory activity on staphyloxanthin IC50
Method: as §1, §2, §3, §5

NF65Y (CHN) = assay: as above; type: cell-based; details: Staphylococcus aureus, read-out: Inhibitory activity on staphyloxanthin IC50
Method: as §1, §2, §3, §5

HS663 (CHN) = assay: as above; type: cell-based; details: Staphylococcus aureus, read-out: Inhibitory activity on staphyloxanthin IC50
Method: as §1, §2, §3, §5

LRSA202 (CHN) = assay: as above; type: cell-based; details: Staphylococcus aureus, read-out: Inhibitory activity on staphyloxanthin IC50
Method: as §1, §2, §3, §5

NRS108 (FRA) = assay: as above; type: cell-based; details: Staphylococcus aureus, NRS108, read-out: Inhibitory activity on staphyloxanthin IC50
Method: as §1, §2, §3, §5

NRS271 (SPA) = assay: as above; type: cell-based; details: Staphylococcus aureus, NRS271, read-out: Inhibitory activity on staphyloxanthin IC50
Method: as §1, §2, §3, §5

LRSA205 (CHN) = assay: as above; type: cell-based; details: Staphylococcus aureus, read-out: Inhibitory activity on staphyloxanthin IC50
Method: as §1, §2, §3, §5

LRSA56 (CHN) = assay: as above; type: cell-based; details: Staphylococcus aureus, read-out: Inhibitory activity on staphyloxanthin IC50
Method: as §1, §2, §3, §5

NRS100 (USA) = assay: as above; type: cell-based; details: Staphylococcus aureus, NRS100, read-out: Inhibitory activity on staphyloxanthin IC50
Method: as §1, §2, §3, §5

XN108 (CHN) = assay: as above; type: cell-based; details: Staphylococcus aureus, read-out: Inhibitory activity on staphyloxanthin IC50
Method: as §1, §2, §3, §5

CYP enzyme subtype 2C9 = CYP enzyme subtype 2C9 (Homo sapiens, UniProt P11712); assay: Inhibition assay on hepatic CYP450 enzyme; type: in vitro ADME; details: CYP 2C9; read-out: Half inhibitory concentration (IC50)
CrtN = CrtN (Staphylococcus aureus, UniProt O07855); assay: biochemical
Method: (1) Preparation of Diapophytoene Emulsion as Substrate […]
After completion of the reaction, the reaction was terminated by adding 500 μL of methanol, and the reaction solution was transferred to a 15 mL centrifuge tube; the reaction solution was added with 700 μL of chloroform, and vortexed thoroughly to extract the reacted staphyloxanthin, and then centrifuged at 7000 rpm for 3 min, and the chloroform layer was carefully pipetted; the remaining reaction solution was extracted by further adding 500 μL of chloroform thereto, and the extracts were combined and concentrated to dryness under vacuum; the concentrated product was dissolved by adding 200 μL of chloroform, and pipetted into a 96-well microplate, and then the absorbance was measured at 450 nm for quantification of the CrtN product diaponeurosporene.

S. aureus strain Newman = assay: IC50 determination of inhibition of staphyloxanthin synthesis; type: cell-based; details: Staphylococcus aureus
Method: as §1, §2, §3
S. aureus was selected for IC50 determination with respect to activity of inhibiting staphyloxanthin synthesis. […]

CYP enzyme subtype 2C8 = CYP enzyme subtype 2C8 (Homo sapiens, UniProt P10632); assay: Inhibition assay on hepatic CYP450 enzyme
Mu50 [2] = assay: In vivo pharmacodynamics evaluation in infected mice; details: BALB/c mice infected retroorbitally with Mu50
Method: (§6) Compound IA-25 was used as a representative compound. The laboratory SPF-grade female BALB/c mice were purchased from Shanghai Jiesijie Laboratory Animal Co., Ltd. and bred under aseptic condition to 6-8 weeks old. The S. aureus strains which had been cultured overnight were transferred to fresh and sterile TSB medium and cultured at 37° C. and 250 rpm for 3 h to exponential growth phase; the culture was washed twice with PBS buffer, and then suspended in PBS for later use. In the mouse infection assay, the mice were divided into several groups, each containing 10 mice.

LRSA56 = assay: as above; details: BALB/c mice infected retroorbitally with LRSA56
Method: as §6

NRS271 = assay: as above; details: BALB/c mice infected retroorbitally with NRS271
Method: as §6

NRS108 = assay: as above; details: BALB/c mice infected retroorbitally with NRS108
Method: as §6

CYP enzyme subtype 2C19 = CYP enzyme subtype 2C19 (Homo sapiens, UniProt P33261); assay: Inhibition assay on hepatic CYP450 enzyme; type: in vitro ADME; details: CYP 2C19; read-out: Half inhibitory concentration (IC50)
Chain of CYP enzyme subtype 2C19 (P33261 whole entry): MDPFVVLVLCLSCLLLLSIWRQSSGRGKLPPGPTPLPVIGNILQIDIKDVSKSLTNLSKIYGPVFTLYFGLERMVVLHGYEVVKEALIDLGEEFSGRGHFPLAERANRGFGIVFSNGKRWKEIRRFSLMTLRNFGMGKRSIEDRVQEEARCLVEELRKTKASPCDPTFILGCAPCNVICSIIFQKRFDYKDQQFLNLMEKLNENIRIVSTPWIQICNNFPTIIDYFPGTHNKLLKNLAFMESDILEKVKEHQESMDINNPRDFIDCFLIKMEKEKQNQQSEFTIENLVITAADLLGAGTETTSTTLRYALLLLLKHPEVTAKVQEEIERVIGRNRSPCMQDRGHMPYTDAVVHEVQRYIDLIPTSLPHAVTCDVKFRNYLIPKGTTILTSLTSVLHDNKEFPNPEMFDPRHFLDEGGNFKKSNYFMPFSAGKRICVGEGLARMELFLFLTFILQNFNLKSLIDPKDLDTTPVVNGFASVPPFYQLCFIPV

Chain of CrtN (O07855 whole entry): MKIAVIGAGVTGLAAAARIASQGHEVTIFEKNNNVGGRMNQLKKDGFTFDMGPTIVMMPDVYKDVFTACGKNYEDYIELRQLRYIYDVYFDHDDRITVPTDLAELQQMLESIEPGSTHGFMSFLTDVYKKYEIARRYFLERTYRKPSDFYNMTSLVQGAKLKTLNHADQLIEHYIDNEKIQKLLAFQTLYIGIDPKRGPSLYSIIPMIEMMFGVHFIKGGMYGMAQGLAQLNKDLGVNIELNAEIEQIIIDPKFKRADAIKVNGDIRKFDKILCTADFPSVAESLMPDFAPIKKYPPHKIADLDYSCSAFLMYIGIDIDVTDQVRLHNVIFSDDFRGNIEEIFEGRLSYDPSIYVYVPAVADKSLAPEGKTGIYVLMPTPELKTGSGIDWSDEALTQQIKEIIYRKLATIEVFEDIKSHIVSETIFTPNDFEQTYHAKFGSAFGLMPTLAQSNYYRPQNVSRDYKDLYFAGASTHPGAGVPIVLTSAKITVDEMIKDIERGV
Chain of CYP enzyme subtype 1A2 (P05177 whole entry): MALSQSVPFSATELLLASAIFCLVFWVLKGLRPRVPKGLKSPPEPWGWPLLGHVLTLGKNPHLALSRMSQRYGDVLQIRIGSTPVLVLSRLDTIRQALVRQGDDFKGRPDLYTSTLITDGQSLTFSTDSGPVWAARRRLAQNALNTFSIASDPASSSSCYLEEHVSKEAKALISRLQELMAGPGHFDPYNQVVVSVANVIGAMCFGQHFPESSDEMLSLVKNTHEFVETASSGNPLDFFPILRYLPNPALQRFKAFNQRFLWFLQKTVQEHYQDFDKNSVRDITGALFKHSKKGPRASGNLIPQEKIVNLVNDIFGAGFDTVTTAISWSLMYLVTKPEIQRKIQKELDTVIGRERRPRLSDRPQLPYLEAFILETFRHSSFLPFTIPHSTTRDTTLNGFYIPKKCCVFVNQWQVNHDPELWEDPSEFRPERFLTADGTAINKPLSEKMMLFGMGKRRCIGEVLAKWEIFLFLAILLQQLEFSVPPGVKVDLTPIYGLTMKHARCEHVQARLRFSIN
Chain of CYP enzyme subtype 2C8 (P10632 whole entry): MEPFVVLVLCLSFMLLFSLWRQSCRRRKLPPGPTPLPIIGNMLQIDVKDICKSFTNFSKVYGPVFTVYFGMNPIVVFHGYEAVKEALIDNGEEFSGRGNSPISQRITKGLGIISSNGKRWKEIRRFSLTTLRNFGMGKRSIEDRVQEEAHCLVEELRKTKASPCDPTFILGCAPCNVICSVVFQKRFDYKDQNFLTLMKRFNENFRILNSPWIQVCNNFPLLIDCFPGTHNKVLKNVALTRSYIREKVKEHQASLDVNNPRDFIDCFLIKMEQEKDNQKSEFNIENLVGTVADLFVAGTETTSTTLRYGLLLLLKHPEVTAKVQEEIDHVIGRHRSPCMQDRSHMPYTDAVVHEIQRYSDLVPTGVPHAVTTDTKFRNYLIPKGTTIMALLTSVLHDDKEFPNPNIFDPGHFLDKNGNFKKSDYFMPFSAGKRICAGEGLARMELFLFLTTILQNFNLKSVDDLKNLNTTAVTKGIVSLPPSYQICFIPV
Chain of CYP enzyme subtype 2C9 (P11712 whole entry): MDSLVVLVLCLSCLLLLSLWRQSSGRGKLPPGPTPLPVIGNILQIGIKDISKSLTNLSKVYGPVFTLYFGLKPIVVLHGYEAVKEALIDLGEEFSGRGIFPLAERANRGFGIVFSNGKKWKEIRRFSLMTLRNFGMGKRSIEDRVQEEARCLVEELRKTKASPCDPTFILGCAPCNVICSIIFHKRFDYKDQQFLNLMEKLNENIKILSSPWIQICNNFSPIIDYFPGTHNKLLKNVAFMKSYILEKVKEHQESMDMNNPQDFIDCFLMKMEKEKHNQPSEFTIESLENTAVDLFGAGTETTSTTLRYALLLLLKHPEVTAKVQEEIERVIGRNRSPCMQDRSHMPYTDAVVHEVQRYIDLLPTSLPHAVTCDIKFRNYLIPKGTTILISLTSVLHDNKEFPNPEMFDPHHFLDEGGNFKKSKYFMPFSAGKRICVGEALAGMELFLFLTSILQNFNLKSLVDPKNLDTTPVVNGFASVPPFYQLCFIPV
Chain of CYP enzyme subtype 2D6 (P10635 whole entry): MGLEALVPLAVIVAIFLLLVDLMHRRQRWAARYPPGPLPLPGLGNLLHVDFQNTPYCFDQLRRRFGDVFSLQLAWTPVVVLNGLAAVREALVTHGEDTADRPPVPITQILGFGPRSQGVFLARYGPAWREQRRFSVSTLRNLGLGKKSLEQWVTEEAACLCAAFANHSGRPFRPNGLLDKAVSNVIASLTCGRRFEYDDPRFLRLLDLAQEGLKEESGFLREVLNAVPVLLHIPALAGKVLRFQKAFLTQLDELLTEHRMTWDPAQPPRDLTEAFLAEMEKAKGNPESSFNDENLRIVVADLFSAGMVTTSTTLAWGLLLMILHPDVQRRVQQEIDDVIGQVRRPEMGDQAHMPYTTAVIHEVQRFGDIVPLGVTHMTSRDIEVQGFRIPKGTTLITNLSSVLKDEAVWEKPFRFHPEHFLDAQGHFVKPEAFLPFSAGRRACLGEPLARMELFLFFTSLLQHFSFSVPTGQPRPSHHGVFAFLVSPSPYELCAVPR

## CN(C/C=C/c1ccc(-c2ccccc2)cc1)Cc1coc2ccccc12 [Compound IA-25, (E)-N-methyl-N-[(benzofuran-3-yl)methylene]-3-(4-phenylphenyl)-prop-2-en-1-amine]
In vitro
  half-life: 0.833 to 2 h
CYP enzyme subtype 2D6
  IC50: 3200 nM
Mu50 [1]; read-out: IC50, staphyloxanthin synthesis in drug-resistant strain
  IC50: 0.8 ± 1.4 nM
Mu50 [1]; read-out: Inhibitory activity on staphyloxanthin IC50
  IC50: 0.8 ± 0.01 nM
USA300 LAC; USA300, read-out: IC50, staphyloxanthin synthesis in drug-resistant strain
  IC50: 7.9 ± 1.2 nM
USA300 LAC; USA300, read-out: Inhibitory activity on staphyloxanthin IC50
  IC50: 7.9 ± 0.2 nM
USA400 MW2; USA400, read-out: IC50, staphyloxanthin synthesis in drug-resistant strain
  IC50: 1.9 ± 0.5 nM
USA400 MW2; USA400, read-out: Inhibitory activity on staphyloxanthin IC50
  IC50: 1.9 ± 1.2 nM
S. aureus
  bacterial survival rate after hydrogen peroxide killing: less than 5%
CYP enzyme subtype 1A2
  IC50: 5690 nM
NRS70 (JPN)
  IC50: 1.7 ± 0.01 nM
NF65Y (CHN)
  IC50: 1 ± 0.02 nM
HS663 (CHN)
  IC50: 0.02 ± 0.01 nM
LRSA202 (CHN)
  IC50: 1.6 ± 0.2 nM
NRS108 (FRA)
  IC50: 5.6 ± 0.02 nM
NRS271 (SPA)
  IC50: 0.4 ± 0.01 nM
LRSA205 (CHN)
  IC50: 10.5 ± 0.4 nM
LRSA56 (CHN)
  IC50: 1.8 ± 0.1 nM
NRS100 (USA)
  IC50: 1.2 ± 0.1 nM
XN108 (CHN)
  IC50: 0.2 ± 0.04 nM
CYP enzyme subtype 2C9
  IC50: > 10000 nM
CrtN
  IC50: 373 nM
S. aureus strain Newman; Newman, Table 3, read-out: Inhibitory activity on staphyloxanthin IC50
  IC50: 2 ± 0.1 nM
S. aureus strain Newman; S. aureus strain Newman, Table 1, read-out: IC50, inhibitory activity on staphyloxanthin synthesis
  IC50: 2 ± 0.1 nM
CYP enzyme subtype 2C8
  IC50: > 10000 nM
Mu50 [2]
  Viable colony counts in vivo: 2.7 Log10CFU
LRSA56
  Viable colony counts in vivo: 3.3 Log10CFU
NRS271
  Viable colony counts in vivo: 6.4 Log10CFU
NRS108
  Viable colony counts in vivo: 2.3 Log10CFU
CYP enzyme subtype 2C19
  IC50: > 10000 nM
